The subject of assay [1] is heart rate and blood pressure. In words: Heart rate and blood pressure changes of rats induced by guaiacoxypropanolamines. In kind it is in vivo. As to conditions: 1.0 mg/kg iv, means ± SE (n = 8).
Assay [2] has as its target T1, Isolated Guinea Pig Atria (Cavia porcellus, UniProt H0W3H1).
T1 construct: Isolated Guinea Pig Atria; from tissue; host or cells: guinea pig atria (isolated organ)
Put plainly: pA2 on isolated guinea pig atria. Format: cell-based. To be noted: for Kb: isolated guinea pig atria; for Potency ratio (PR), positive chronotropic / Potency ratio (PR), positive inotropic: with respect to propranolol.
Excerpt: The determination of the pA2 is made from experiments in which a fixed concentration of the antagonist is used along with graded concentrations of an agonist acting on the same receptor. The presence of the antagonist shifts the agonist dose-response curve to the right.

[3] abbreviates: read-out: pA2, positive chronotropic (converted).
Where [4] appears, read: read-out: pA2, positive inotropic (converted).

Each structure is given as a SMILES string. Where two headings read alike, the source gives them in different places.

Consider four compounds from patent US5804603A, “Synthesized β-adrenergic blockers derivatives of guaiacol” (National Science Council, priority 1995, dated 1998).

T1 sequence (H0W3H1 1-470): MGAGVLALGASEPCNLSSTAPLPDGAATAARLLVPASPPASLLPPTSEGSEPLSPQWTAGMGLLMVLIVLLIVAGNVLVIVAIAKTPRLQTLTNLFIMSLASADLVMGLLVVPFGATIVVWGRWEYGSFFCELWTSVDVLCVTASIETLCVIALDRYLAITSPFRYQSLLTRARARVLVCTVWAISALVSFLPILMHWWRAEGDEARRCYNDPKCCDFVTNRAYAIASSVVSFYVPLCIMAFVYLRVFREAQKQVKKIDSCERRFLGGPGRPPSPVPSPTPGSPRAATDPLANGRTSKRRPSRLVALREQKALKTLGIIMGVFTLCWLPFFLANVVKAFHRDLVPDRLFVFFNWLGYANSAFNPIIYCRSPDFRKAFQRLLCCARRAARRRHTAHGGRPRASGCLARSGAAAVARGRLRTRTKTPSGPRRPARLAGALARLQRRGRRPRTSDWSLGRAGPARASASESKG

On to `CCCCCCCCC(=O)NCc1ccc(OCC(O)CNC2CC2)c(OC)c1` (stereo not drawn) [NH-c-C3 H5, N-[4-o-(2-hydroxy-3-(cyclopropylamino)propoxy)-3-methoxybenzyl]-nonamide], for which the “change in BP” value was -0.11 ± 1.09 mmHg in assay [1] (5 min after dosing); 3.11 ± 2.78 mmHg in assay [1] (10 min after dosing); 3.89 ± 2.92 mmHg in assay [1] (15 min after dosing); 3.67 ± 4.10 mmHg in assay [1] (30 min after dosing); 2.22 ± 2.32 mmHg in assay [1] (60 min after dosing). Further, the “change in HR” value is recorded as -47.67 ± 8.88 beats/min in assay [1] (5 min after dosing); -38.89 ± 9.47 beats/min in assay [1] (10 min after dosing); -23.67 ± 10.01 beats/min in assay [1] (15 min after dosing); -11.89 ± 8.73 beats/min in assay [1] (30 min after dosing); -2.67 ± 4.14 beats/min in assay [1] (60 min after dosing).
In the case of `CCCCCCCCC(=O)NCc1ccc(OCC(O)CNC2CCCCC2)c(OC)c1` (stereo not drawn) [NH-c-C6 H11, N-[4-o-(2-hydroxy-3-(cyclohexylamino)propoxy)-3-methoxybenzyl]-nonamide], the “change in BP” value is listed as -4.11 ± 2.89 mmHg in assay [1] (5 min after dosing); -4.22 ± 2.29 mmHg in assay [1] (10 min after dosing); -3.67 ± 2.39 mmHg in assay [1] (15 min after dosing); 1.33 ± 2.69 mmHg in assay [1] (30 min after dosing); 0.67 ± 2.45 mmHg in assay [1] (60 min after dosing). Also, the “change in HR” value is on record as -32.33 ± 15.44 beats/min in assay [1] (5 min after dosing); -28.44 ± 16.54 beats/min in assay [1] (10 min after dosing); -11.67 ± 9.26 beats/min in assay [1] (15 min after dosing); -1.78 ± 8.96 beats/min in assay [1] (30 min after dosing); 2.78 ± 9.64 beats/min in assay [1] (60 min after dosing).
Regarding `CCCCCCCCC(=O)NCc1ccc(OCC(O)CNC(C)C)c(OC)c1` (stereo not drawn) [NH-i-C3 H7, N-[4-o-(2-hydroxy-3-(isopropylamino)propoxy)-3-methoxybenzyl]-nonamide], the “change in BP” value in assay [1] (5 min after dosing) is given as -0.44 ± 2.05 mmHg; in assay [1] (10 min after dosing), -1.22 ± 2.29 mmHg; in assay [1] (15 min after dosing), -2.89 ± 2.03 mmHg; in assay [1] (30 min after dosing), -6.67 ± 2.51 mmHg; in assay [1] (60 min after dosing), -1.33 ± 0.98 mmHg. Moreover, the “change in HR” value is given as -50.22 ± 7.29 beats/min in assay [1] (5 min after dosing); -40.78 ± 7.64 beats/min in assay [1] (10 min after dosing); -35.44 ± 7.32 beats/min in assay [1] (15 min after dosing); -32.67 ± 9.24 beats/min in assay [1] (30 min after dosing); -20.00 ± 6.15 beats/min in assay [1] (60 min after dosing). The Kb in assay [2] (setting [3]) was 17 nM; in assay [2] (setting [4]) it was 8.51 nM. Further, the “Potency ratio (PR), positive chronotropic” value in assay [2] is 0.45. For the same compound, in assay [2], the “Potency ratio (PR), positive inotropic” value was 0.45.
Consider `CCCCCCCCC(=O)NCc1ccc(OCC(O)CNCC(C)C)c(OC)c1` (stereo not drawn) [NH-i-C4 H9, N-[4-o-(2-hydroxy-3-(iso-butylamino)propoxy)-3-methoxybenzyl]-nonamide], for which the “change in BP” value is on record as -2.75 ± 2.29 mmHg in assay [1] (5 min after dosing); 1.63 ± 2.07 mmHg in assay [1] (10 min after dosing); 1.63 ± 1.71 mmHg in assay [1] (15 min after dosing); 2.00 ± 1.86 mmHg in assay [1] (30 min after dosing); 0.25 ± 1.91 mmHg in assay [1] (60 min after dosing). Besides, the “change in HR” value in assay [1] (5 min after dosing) is recorded as -39.88 ± 8.60 beats/min; in assay [1] (10 min after dosing), -35.25 ± 7.98 beats/min; in assay [1] (15 min after dosing), -27.13 ± 7.76 beats/min; in assay [1] (30 min after dosing), 4.13 ± 8.20 beats/min; in assay [1] (60 min after dosing), 3.13 ± 7.90 beats/min. Besides, the Kb was 117 nM in assay [2] (setting [3]) and 26.9 nM in assay [2] (setting [4]). The “Potency ratio (PR), positive chronotropic” value in assay [2] is recorded as 0.06. Besides, the “Potency ratio (PR), positive inotropic” value in assay [2] is reported as 0.14.
